Earlier results as cited in US8071763B2, “Methods for treatment of nocturia” (Daiichi Sankyo Company, Limited, priority 2002, dated 2011).
Like-named read-outs stand apart in the source and are kept apart here.

Columns and labels:
nocturia [1] = conditions: 100 mg suppository, open trial, 15 patients; cited from earlier work
nocturia [2] = conditions: one patient; suppository administered as antipyretics; cited from earlier work

## COc1ccc2c(c1)c(CC(=O)O)c(C)n2C(=O)c1ccc(Cl)cc1 [indomethacin]
Nocturia [1]
  Effect on nocturia: improved nocturia in all 15 patients
Nocturia [2]
  Effect on nocturia: nocturia was improved
